These compounds were tested against IRAK4 (Homo sapiens (Human), UniProt Q9NWZ3) (assay: IRAK4 Inhibition Assay). Details: ATP 500 μM; IRAK4 0.6 nM; 60 min at room temperature; read-out: IRAK4 IC50.
Assay type: biochemical
Experimental: IRAK4 Inhibition Assay The assays were performed in U-bottom 384-well plates. […] The reaction was initiated by the combination of IRAK4 with substrates and test compounds. The reaction mixture was incubated at room temperature for 60 min. and terminated by adding 45 μL of 35 mM EDTA to each sample.

Sequence of IRAK4 (Q9NWZ3 whole entry, species assumed): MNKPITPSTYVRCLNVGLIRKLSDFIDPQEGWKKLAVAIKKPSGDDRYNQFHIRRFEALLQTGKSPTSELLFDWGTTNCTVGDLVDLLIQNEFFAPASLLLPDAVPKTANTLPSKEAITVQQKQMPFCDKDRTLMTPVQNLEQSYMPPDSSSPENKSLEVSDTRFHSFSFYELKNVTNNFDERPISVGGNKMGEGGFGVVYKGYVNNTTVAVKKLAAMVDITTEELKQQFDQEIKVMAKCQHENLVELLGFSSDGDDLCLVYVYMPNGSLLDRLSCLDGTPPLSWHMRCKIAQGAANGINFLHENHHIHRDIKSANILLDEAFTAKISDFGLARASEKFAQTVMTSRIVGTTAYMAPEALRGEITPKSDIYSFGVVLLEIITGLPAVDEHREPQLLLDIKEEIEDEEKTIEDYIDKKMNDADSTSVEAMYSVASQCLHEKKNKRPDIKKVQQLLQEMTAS

In order of rising IC50:
1. CC(C)(O)[C@H](F)CNC(=O)c1cnc(Nc2ncc(C#N)cc2F)cc1Nc1ccc(C(N)=O)cc1 [Example 142]  1.2 nM
2. CC(C)(O)[C@H](F)CNC(=O)c1cnc(Nc2ncc(C#N)cc2F)cc1NC1CCC(F)C1 (stereo partly drawn) [Example 114]  2.3 nM
3. CC(C)Nc1cc(Nc2ncc(C#N)cc2F)ncc1C(=O)N[C@H]1CC[C@H](C(=O)NC(C)C)CC1 [Example 116]  2.8 nM
4. CC(C)(O)[C@H](F)CNC(=O)c1cnc(Nc2ncc(C#N)cc2F)cc1NCC(F)(F)C(C)(C)O [Example 126]  2.9 nM
5. CC(C)(O)[C@H](F)CNC(=O)c1cnc(Nc2ncc(C#N)cc2F)cc1NC12CCC(O)(CC1)C2 [Example 133]  3.2 nM
6. CC(C)(O)[C@H](F)CNC(=O)c1cnc(Nc2ncc(C#N)cc2F)cc1Nc1cccc(CO)c1 [Example 122]  3.3 nM
7. CC(C)Nc1cc(Nc2ncc(C#N)c(N)n2)ncc1C(=O)NC[C@@H](F)C(C)(C)O [Example 136]  3.3 nM
8. CC(C)Nc1cc(Nc2ncc(Cl)cc2F)ncc1C(=O)NC[C@@H](F)C(C)(C)O [Example 123]  3.5 nM
9. CCCNc1cc(Nc2ncc(C#N)cc2Cl)ncc1C(=O)NC[C@@H](F)C(C)(C)O [Example 138]  3.5 nM
10. CC(C)(O)[C@H](F)CNC(=O)c1cnc(Nc2ncc(C#N)cc2F)cc1Nc1cccc(O)c1 [Example 125]  3.6 nM
11. CCC(O)(CC)[C@H](F)CNC(=O)c1cnc(Nc2ncc(C#N)cn2)cc1NC(C)C [Example 117]  3.8 nM
12. COc1cccc(Nc2cc(Nc3ncc(C#N)cc3F)ncc2C(=O)NC[C@@H](F)C(C)(C)O)c1 [Example 130]  4 nM
13. CC(C)Nc1cc(Nc2ncc(C#N)cc2F)ncc1C(=O)N[C@H]1CC[C@H](C(C)(C)O)CC1 [Example 137]  4.1 nM
14. CC(C)Nc1cc(Nc2ncc(C#N)cc2F)ncc1C(=O)N[C@H]1CC[C@H](C(=O)NC2CC2)CC1 [Example 118]  4.6 nM
15. CC(C)(O)[C@H](F)CNC(=O)c1cnc(Nc2ncc(C#N)cc2F)cc1Nc1cccc(S(N)(=O)=O)c1 [Example 128]  4.6 nM
16. CC(C)(O)[C@H](F)CNC(=O)c1cnc(Nc2ncc(C#N)cc2F)cc1Nc1cccc(NS(C)(=O)=O)c1 [Example 134]  5.2 nM
17. CC(C)(O)[C@H](F)CNC(=O)c1cnc(Nc2ncc(Cl)cc2F)cc1NC1CC1 [Example 124]  5.7 nM
18. CC(C)(O)[C@H](F)CNC(=O)c1cnc(Nc2ncc(C#N)cc2F)cc1Nc1cccc(C(N)=O)c1 [Example 135]  6 nM
19. CCCNc1cc(Nc2ncc(C#N)cc2F)ncc1C(=O)NC[C@@H](F)C(C)(C)O [Example 139]  6 nM
20. CC(C)Nc1cc(Nc2ncc(C#N)cc2F)ncc1C(=O)NCCc1ccc(S(N)(=O)=O)cc1 [Example 121]  6.6 nM
21. CC(C)CCNc1cc(Nc2ncc(C#N)cc2Cl)ncc1C(=O)NC[C@@H](F)C(C)(C)O [Example 140]  7.3 nM
22. CC(C)CCNc1cc(Nc2ncc(C#N)cc2F)ncc1C(=O)NC[C@@H](F)C(C)(C)O [Example 141]  9.9 nM
23. CC(C)(O)[C@H](F)CNC(=O)c1cnc(Nc2ncc(C#N)cc2F)cc1NC12CC3CC(CC(C3)C1)C2 [Example 119]  10.5 nM
24. CC(C)Nc1cc(Nc2ccnc(N)n2)ncc1C(=O)NC[C@@H](F)C(C)(C)O [Example 131]  10.6 nM
25. COc1cnc(Nc2cc(NC3CCC3)c(C(=O)NC[C@@H](F)C(C)(C)O)cn2)nc1 [Example 112]  11 nM
26. CC(C)Nc1cc(Nc2ncc(O)cn2)ncc1C(=O)NC[C@@H](F)C(C)(C)O [Example 111]  11.8 nM
27. CC(C)Nc1cc(Nc2ncncc2N)ncc1C(=O)NC[C@@H](F)C(C)(C)O [Example 132]  13 nM
28. CC(C)Nc1cc(Nc2ncc(C#N)cc2F)ncc1C(=O)NCCCOC(C)(C)C [Example 127]  15.3 nM
29. Cc1cnc(Nc2cc(NC(C)C)c(C(=O)NC[C@@H](F)C(C)(C)O)cn2)c(F)c1 [Example 129]  15.9 nM
30. Cc1cnc(Nc2cc(NC(C)C)c(C(=O)NC[C@@H](F)C(C)(C)O)cn2)nc1 [Example 113]  17 nM

Reference: patent US9657009B2, “Heteroaryl substituted pyridyl compounds useful as kinase modulators” (BRISTOL-MYERS SQUIBB COMPANY, priority 2012, dated 2017)
